Measured values as given in US20240390369A1, “METHODS FOR DETERMINING RESPONSIVENESS TO TYK2 INHIBITORS” (Bristol-Myers Squibb Company, priority 2021, published 2024).
Values joined by “and” are separate entries in the source; they are usually repeats but may differ in a detail not shown here. Equal entries are not always repeated.

Test system: patients with psoriatic arthritis
Test: Phase 2 trial in psoriatic arthritis: PASI75 response at week 16
Format: in vivo, human
Conditions: for Number of subjects: 12 mg QD
Procedure: In a double-blind Phase 2 trial, 203 patients with psoriatic arthritis were randomized into three groups: deucravacitinib 6 mg once daily (N=70), deucravacitinib 12 mg once daily (N=67), or placebo (N=66). All subjects had active psoriatic arthritis according to the Classification Criteria for Psoriatic Arthritis (CASPAR); for active disease, these criteria required ≥3 tender joint count, ≥3 swollen joint count, and a C-reactive protein level above 3 mg/L. Other inclusion criteria included the following: presence of at least one plaque psoriasis lesion, and prior treatment failure with a non-biologic disease modifying anti-rheumatic drug, a non-steroidal anti-inflammatory drug, or a steroid. With respect to treatment history, approximately 70% of subjects had not received prior treatment with a biologic and were biologic naïve, while up to 30% of subjects had failed or had been intolerant to one TNF-inhibitor (TNF=Tumor necrosis factor, also known as TNFα). Randomization was stratified by prior TNF-inhibitor use (experienced/naïve) and body weight (<90 kg and ≥90 kg).
Clinical measures included the Psoriasis […] (PASI) score for skin psoriasis, American College of Rheumatology 20 (ACR20) response, Psoriatic Arthritis Disease Activity Score (PASDAS), Health Assessment Questionnaire-Disability Index (HAQ-DI), and Disease Activity Score 28 CRP (DAS28). To evaluate the predictive value of different protein measurements for the clinical response to deucravacitinib, baseline protein concentrations for responders and non-responders, as defined by ACR20 or PASI75 at week 16, were compared for each arm (placebo, 6 mg deucravacitinib once-daily, and 12 mg deucravacitinib once-daily).
In addition, a logistic regression model was fit, to determine whether baseline disease score (dichotomized by the median baseline score, into baseline score high and baseline score low groups) was associated with response status. The model generated an odds ratio for each dosed arm versus placebo, in baseline score high and baseline score low groups.
Boxplots for baseline protein level by response were generated with a horizontal line indicating the median protein level at baseline. For each treatment arm, a two-sample t-test was performed to test whether mean baseline serum protein level was different in responders versus non-responders. A Wilcoxon rank sum test (Mann-Whitney U test) was also performed to evaluate the difference in median serum protein level between responders and non-responders. Further, barplots of ACR20 and PASI75 response rate at week 16 for each treatment arm were generated for all subjects (protein level high and protein level low subjects, dichotomized according to median baseline level). Line plots of ACR20 and PASI75 response rate over time for each treatment arm were generated for protein level high and protein level low groups. Logistic regression models were also fit to evaluate associations between baseline protein levels and clinical outcome.
For certain analyses described herein, patients were dichotomized by median values (e.g., of the proteins listed above or other measures) into “high” and “low” groups, such that the high group had values above the median and the low group had values less than or equal to the median.
In addition, logistic regression models were fit for response measures ACR20 and PASI75, to generate the odds ratio of each of the deucravacitinib treatment arms versus placebo, in BD2-high and BD2-low groups. The following logistic regression models were used: • For ACR20 response status: ACR20 (Y/N)=treatment arm+BD2 group+treatment arm*BD2 group+TNF-inhibitor use+baseline weight (continuous). • For PASI75 response status: PASI75 (Y/N)=treatment arm+BD2 group+treatment arm*BD2 group+TNF-inhibitor use+baseline weight (continuous). […]

SMILES: [2H]C([2H])([2H])NC(=O)c1nnc(NC(=O)C2CC2)cc1Nc1cccc(-c2ncn(C)n2)c1OC [deucravacitinib, 6-(cyclopropanecarboxamido)-4-((2-methoxy-3-(1-methyl-1H-1,2,4-triazol-3-yl)phenyl)amino)-N-(methyl-d3)pyridazine-3-carboxamide]
- Number of subjects (PASI75 responder at week 16, above median baseline IL-19 level): 20
- Number of subjects (PASI75 responder at week 16, below baseline PASI median 6.6): 11
- Number of subjects (PASI75 responder at week 16, below median baseline BD2 level): 19
- Number of subjects (PASI75 responder at week 16, below median baseline IL-17A level): 12
- Number of subjects (PASI75 responder at week 16, below median baseline IL-19 level): 10
- Number of subjects (PASI75 responder, BD2-high-PASI-high): 13
- Number of subjects (PASI75 responder, BD2-high-PASI-low): 7
- Number of subjects (PASI75 responder, BD2-low-PASI-high): 6
- Number of subjects (PASI75 responder, BD2-low-PASI-low): 4
- Number of subjects (PASI75 responder, IL-17A-high-PASI-high): 10
- Number of subjects (PASI75 responder, IL-17A-high-PASI-low): 8
- Number of subjects (PASI75 responder, IL-17A-low-PASI-high): 9
- Number of subjects (PASI75 responder, IL-17A-low-PASI-low): 3
- Number of subjects (PASI75 responder, IL-19-high-PASI-high): 12
- Number of subjects (PASI75 responder, IL-19-high-PASI-low): 8
- Number of subjects (PASI75 responder, IL-19-low-PASI-high): 7
- Number of subjects (PASI75 responder, IL-19-low-PASI-low): 3
- Odds Ratio, PASI75 response status (All patients, 6 mg QD vs placebo, not adjusted for baseline disease activity): 2.88
- Odds Ratio for PASI75 response (All patients, 6 mg QD vs placebo, week 16): 2.88
- Odds Ratio, PASI75 response status (All patients, 6 mg QD vs placebo, week 16, adjusted for baseline PASI score): 3.052 and 3.05
- Odds Ratio, PASI75 response status (All patients, 12 mg QD vs placebo, not adjusted for baseline disease activity): 5.781 and 5.78
- Odds Ratio for PASI75 response (All patients, 12 mg QD vs placebo, week 16): 5.781
- Odds Ratio, PASI75 response status (All patients, 12 mg QD vs placebo, week 16, adjusted for baseline PASI score): 6.494 and 6.49
- Odds Ratio for PASI75 response (All patients, deucravacitinib treatment arms combined vs placebo, week 16): 3.998
- Odds Ratio, PASI75 response status (All patients, treatment arms combined vs placebo): 3.998
- PASI75 response rate at week 16 (BD2-high group, 6 mg QD and 12 mg QD vs placebo arm (FIG. 7)): higher in both 6 mg QD and 12 mg QD treatment arms compared to the placebo arm
- Odds Ratio for PASI75 response (BD2-high-PASI-high, 6 mg QD vs placebo, week 16): 29.67
- Odds Ratio for PASI75 response (BD2-high-PASI-high, 12 mg QD vs placebo, week 16): 43.084
- Odds Ratio for PASI75 response (BD2-high-PASI-low, 6 mg QD vs placebo, week 16): 2.331
- Odds Ratio for PASI75 response (BD2-high-PASI-low, 12 mg QD vs placebo, week 16): 10.995
- Odds Ratio for PASI75 response (BD2-low-PASI-high, 6 mg QD vs placebo, week 16): 0.825
- Odds Ratio for PASI75 response (BD2-low-PASI-high, 12 mg QD vs placebo, week 16): 7.787
- Odds Ratio for PASI75 response (BD2-low-PASI-low, 6 mg QD vs placebo, week 16): 1.093
- Odds Ratio for PASI75 response (BD2-low-PASI-low, 12 mg QD vs placebo, week 16): 0.967
- Odds Ratio for PASI75 response (BD2 high (baseline above median 9,265 ng/L), 6 mg QD vs placebo, week 16): 10.905
- Odds Ratio for PASI75 response (BD2 high (baseline above median 9,265 ng/L), 12 mg QD vs placebo, week 16): 24.118
- Odds Ratio for PASI75 response (BD2 high, treatment arms combined vs placebo, week 16): 15.415
- Odds Ratio for PASI75 response (BD2 low, 6 mg QD vs placebo, week 16): 0.938
- Odds Ratio for PASI75 response (BD2 low, 12 mg QD vs placebo, week 16): 1.695
- Odds Ratio for PASI75 response (BD2 low, treatment arms combined vs placebo, week 16): 1.274
- Odds Ratio for PASI75 response (Baseline PASI high (above median 6.6), 6 mg QD vs placebo, week 16): 6.94 and 6.937
- Odds Ratio for PASI75 response (Baseline PASI high (above median 6.6), 12 mg QD vs placebo, week 16): 15.75
- Odds Ratio for PASI75 response (Baseline PASI low (at or below median 6.6), 6 mg QD vs placebo, week 16): 1.26 and 1.258
- Odds Ratio for PASI75 response (Baseline PASI low (at or below median 6.6), 12 mg QD vs placebo, week 16): 2.454
- Odds Ratio, PASI75 response status (CRP high, 6 mg QD vs placebo): 3.54
- Odds Ratio, PASI75 response status (CRP high, 12 mg QD vs placebo): 9.78
- Odds Ratio, PASI75 response status (CRP high, treatment arms combined vs placebo): 5.405
- Odds Ratio for PASI75 response (CRP level above median and baseline PASI score above median, 6 mg QD vs placebo, week 16): 18.381
- Odds Ratio, PASI75 response status (CRP low, 6 mg QD vs placebo): 2.12
- Odds Ratio, PASI75 response status (CRP low, 12 mg QD vs placebo): 3.72
- Odds Ratio, PASI75 response status (CRP low, treatment arms combined vs placebo): 2.840
- Odds Ratio, PASI75 response status (CRP-high-PASI-high, 6 mg QD vs placebo): 18.381
